Columns and labels:
CT26 colon carcinoma [1] = experiment: Anti-tumor efficacy of squalene oil-in-water nanoemulsion with or without AH-1 peptide in two flank CT26 colon carcinoma-bearing mice; type: in vivo
Protocol: The effect of repeated weekly doses of intratumorally-delivered pharmaceutical compositions comprised of Compound No. 63-10 formulated in a squalene-based oil-in-water nanoemulsion that was co-formulated with the CT-26 tumor associated AH-1 […] peptide (immunodominant epitope sequence from the endogenous retroviral gene product gp70; see e.g., Rice J, Buchan S and Stevenson F 2002 J Immunol 169:3908-3913) on injected and distal tumor growth inhibition was assessed in CT26 colon carcinoma-bearing Balb/c mice bearing tumors in 2 flanks. All in vivo procedures were conducted in accordance with approved IACUC protocols. The animals were housed in a facility that is accredited by the AALAC. Wild-type female Balb/c mice (15-20 g) were obtained from Envigo (Hayward, Calif.) and acclimated for 2-3 days prior to use.
Pharmaceutical compositions comprised of squalene-based oil-in-water nanoemulsions were made generally as described in Example B2-2. […] Right (injected) and left (distal) tumor volumes were then measured twice weekly from days 8 through day 30 with calipers, with tumor volumes calculated using the formula: length, multiplied by width, multiplied by width, divided by 2.

CT26 colon carcinoma [2] = experiment: Anti-tumor efficacy in combination with anti-PD-1 antibody in dual flank CT26 colon carcinoma-bearing mice; type: in vivo; conditions: 5,000 ng single intratumoral dose day 14, in combination with anti-PD-1
Protocol: All in vivo procedures were conducted in accordance with approved IACUC protocols. The animals were housed in a facility that is accredited by the AALAC. Wild-type female Balb/c mice (15-20 g) were obtained from Envigo (Hayward, Calif.) and acclimated for 2-3 days prior to use.
The pharmaceutical compositions were made using Compound No. 63-10 or 63-33 at final concentrations of 50,000 ng/mL in a manner similar to that described for Example B2-1. […] On day 0, mice were anesthetized with 1% isoflurane, and 80,000 CT26 tumor cells in 200 uL of RMPI-1640 culture media plus 2.5% fetal bovine serum were injected subcutaneously in both the right and left flanks. Tumors (left and right) were allowed to grow until day 8, when the right and left flank tumor sizes had reached approximately 35 mm^3, at which point mice were injected intraperitoneally with 250 μg of anti-PD-1 antibody formulated in phosphate buffered saline or a phosphate buffered saline vehicle control. The anti-PD-1 treatments were repeated on experimental days 12, 15, 19, 22, and 26. On experimental day 14, when the right (injected) and left (distal) flank tumors had reached approximately 100 mm^3, mice were randomized into treatment groups. […] Tumor sizes were measured twice weekly from days 14 through day 29 with calipers, with tumor volumes calculated using the formula: length, multiplied by width, multiplied by width, divided by 2.

SMILES: CCCCCCCCCCCCCC(=O)NCc1ccc(Cn2c(CCCC)nc3c(N)nc4ccccc4c32)cc1 [Compound No. 63-10, N-(4-((4-amino-2-butyl-1H-imidazo[4,5-c]quinolin-1-yl)methyl)benzyl)tetradecanamide]
- tumor growth inhibition in the distal (left) tumor compared to the nanoemulsion vehicle control (CT26 colon carcinoma [1]; day 23, 50 ng intratumoral days 8, 12, 16, 20): not significantly different from the vehicle control
- tumor growth inhibition in the injected (right) tumor compared to the nanoemulsion vehicle control (CT26 colon carcinoma [1]; day 27, 50 ng intratumoral days 8, 12, 16, 20): not significantly different from the vehicle control
- tumor growth inhibition in the injected tumor (right flank) compared to the anti-PD-1 treatment alone (CT26 colon carcinoma [2]): greater tumor growth inhibition
- tumor growth inhibition in the distal tumor (left flank) compared to the anti-PD-1 treatment alone (CT26 colon carcinoma [2]; day 29): no improvement
